Source: publication PMC4235525, “Anticancer Properties of Novel Rhenium Pentylcarbanato Compounds against MDA-MB-468(HTB-132) Triple Node Negative Human Breast Cancer Cell Lines” (British journal of pharmaceutical research, 2015)

Tests used:
[1] = tested on: MDA-MB-468 (HTB-132) triple node negative breast cancer cell lines; experiment: Trypan blue cytotoxicity assay, 48 h treatment; assay type: cell-based, human; conditions: drugs in DMSO, read-out: IC-50 (mean ± S.D.), concentration required to have 50% cell-growth inhibition, Breast Cancer HTB-132 cell lines
Protocol: MDA-MB-468 (HTB-132) triple node negative breast cancer cell lineswere obtained from ATCC (USA), cultured inL-15 medium supplemented with 10% Fetal Bovine Serum(FBS), penicillin and streptomycin antibiotics and grownat 37°C inan incubator. The mouse glomerular mesangialcell line was a kind gift from Dr. C. Reilly of Virginia Tech University, USA. These cells were cultured in RPMI-1640 medium supplemented with 10%FBS, penicillin and streptomycin antibiotics and grown at 37°C in a carbon dioxide incubator.
HTB-132 breast cancer cell lines were grown in six well plates to confluency, the cells were then kept in serum-free medium overnight and then treated with each of drugsPC1-6 (dissolved in DMSO) along with untreated cells and DMSO vehicular control for 48 hours. […] Atrypan blue assay was done to measure cell viability using a standard hemocytometer and light microscope.
Each experiment was repeated three times and statistical t test was used to analyze the results with P<0.05.

[2] = tested on: Balb/c mouse kidney (mouse glomerular mesangial) cell line; experiment: Trypan blue cytotoxicity (nephrotoxicity) in mouse kidney cells; assay type: cell-based; conditions: 48 hours, trypan blue assay, drugs in DMSO; read-out: IC-50 (mean ± S.D.), concentration required to have 50% cell-growth inhibition, Mouse Mesangial cell lines
Protocol: Aim To study the efficacy of novel rhenium compounds to treat triple node negative breast cancer. Place and Duration Six (6) novel rhenium pentycarbanato compounds (PC1-6) were synthesized and triple node negative breast cancer cell lines HTB-132 and Balb/c mouse kidney cell lines were treated with each of them for 48 hours. The results were analyzed by a common trypan blue cell death assay system and statistically analyzed. Place and Duration The compounds were synthesized, analyzed and evaluated at the Department of Chemistryof Morgan State University, Baltimore, Maryland and the Pharmaceutical Sciences Department of Elizabeth City State University campus of the University of North Carolina system. Methodology The novel rhenium compounds were synthesized from one-pot reactions of Re2(CO)10 with the corresponding α-diimine ligands in 1-pentanol.The compounds were characterized spectroscopically. The cell lines were cultured by standard cell culture procedure and treated with each of the six compounds in DMSO for 48 hours with a negative control and a DMSO vehicular control along with a cisplatin positive control.The cytotoxicity was evaluated by standard trypan blue assay and the results were statistically analyzed. […] Conclusion The novel rhenium compounds PC 1-6 can potentially find applications in the treatment of highly malignant triple node negative breast cancer. […]

cis-[Pt (NH3)2Cl2] [Cisplatin] showed an IC50 [1] of 5000 ± 2500 nM and an IC50 [2] of 1000 ± 2500 nM.
